These results are taken from patent US20230303599A1, “PRODRUGS OF PHOSPHONAMIDE NUCLEOTIDE ANALOGUES AND THEIR PHARMACEUTICAL USE” (priority 2020, published 2023).

In brackets after ≈: the same amount, converted by molar mass. Some results are limits rather than exact numbers.

The series in a line: Kinetic solubility analysis. The settings on record: 1× PBS, 24.2 °C, aqueous buffer, kinetic from dmso stock; pH 7.4 PBS, 1% DMSO, 24-hour incubation at ambient temperature. It counts as physicochemical. As to the method:
Example 108: Kinetic Solubility Analysis
Buffer Preparation: 0.1 N HCl: Hydrochloric acid, 0.1 N standardized solution (MP Biomedicals part number 199569). 1×PBS, pH 7.4: Phosphate Buffered Saline (PBS) solution 10× (Fisher Bioreagent part number BP399-500) 50 mL was added to approximately 450 mL HPLC grade H2O. The volume of the solution was then adjusted to 500 mL for a total dilution factor of 1:10 and a final PBS concentration of 1×.
The final DMSO concentration was 1.0% (v/v) and maximum theoretical compound concentration is 100 μM (for compound stock concentration of 10 mM). The filter plate was sealed. Following 24-hour incubation at ambient temperature (24.2-27.5° C.), the samples were vacuum filtered and the filtrates were collected in a 96 well polypropylene plate for analysis. The collection plate was sealed for analysis. Filtrates were injected into the Antek 8060 chemiluminescent nitrogen detector for quantification. The results are reported in μM.
The filtrates were quantified with respect to this calibration curve. Each calculated solubility value was corrected for background nitrogen present in the DMSO and in the medium used to prepare the sample. All reported values for compounds containing adjacent nitrogen atoms in a ring structure were increased by approximately 25%.

As for `C[C@H](Cn1cnc2c(N)ncnc21)OCP(=O)(NC(C)(C)C(=O)OCC(C)(C)C)NC(C)(C)C(=O)OCC(C)(C)C` [Example 5], the solubility (kinetic) at 24 h was 53 µg/mL (≈ 88.7 µM).

In the case of `CC(C)CCOC(=O)C(C)(C)NP(=O)(CO[C@H](C)Cn1cnc2c(N)ncnc21)NC(C)(C)C(=O)OCCC(C)C` [Example 6, Diisopentyl 2,2′-(((((1-(6-amino-9H-purin-9-yl)propan-2-yl)oxy)methyl)phosphoryl)bis(azanediyl))(R)-bis(2-methylpropanoate)], the kinetic solubility at 24 h stood at 49 µg/mL (≈ 82 µM).

In turn, `CCC(CC)CCOC(=O)C(C)(C)NP(=O)(CO[C@H](C)Cn1cnc2c(N)ncnc21)NC(C)(C)C(=O)OCCC(CC)CC` [Example 7, Bis(3-ethylpentyl) 2,2′-(((((1-(6-amino-9H-purin-9-yl)propan-2-yl)oxy)methyl)phosphoryl)bis(azanediyl))(R)-bis(2-methylpropanoate)] had a kinetic solubility at 24 h of 7 µg/mL (≈ 10.7 µM).

`C[C@H](Cn1cnc2c(N)ncnc21)OCP(=O)(NC(C)(C)C(=O)OCCC(C)(C)C)NC(C)(C)C(=O)OCCC(C)(C)C` [Example 8, Bis(3,3-dimethylbutyl) 2,2′-(((((1-(6-amino-9H-purin-9-yl)propan-2-yl)oxy)methyl)phosphoryl)bis(azanediyl))(R)-bis(2-methylpropanoate)] came in with a kinetic solubility at 24 h of 50 µg/mL (≈ 79.9 µM).

For the molecule `CCCCCCOC(=O)[C@](C)(CC)NP(=O)(CO[C@H](C)Cn1cnc2c(N)ncnc21)N[C@@](C)(CC)C(=O)OCCCCCC` [Example 10, Dihexyl 2,2′-((((((R)-1-(6-amino-9H-purin-9-yl)propan-2-yl)oxy)methyl)phosphoryl)bis(azanediyl))(2S,2′S)-bis(2-methylbutanoate)], the kinetic solubility at 24 h came out at 7 µg/mL (≈ 10.7 µM).

For the molecule `CCCCCCOC(=O)[C@](C)(Cc1ccccc1)NP(=O)(CO[C@H](C)Cn1cnc2c(N)ncnc21)N[C@@](C)(Cc1ccccc1)C(=O)OCCCCCC` [Example 11, Dihexyl 2,2′-((((((R)-1-(6-amino-9H-purin-9-yl)propan-2-yl)oxy)methyl)phosphoryl)bis(azanediyl))(2S,2'S)-bis(2-methyl-3-phenylpropanoate)], the solubility (kinetic) at 24 h is < 1 µg/mL.

`CCCCCCOC(=O)C(C)(C)NP(=O)(CO[C@H](C)Cn1cnc2c(N)ncnc21)NC1(C(=O)OCCCCCC)CC1` (stereo partly drawn) [Example 20, Hexyl 1-((((((R)-1-(6-amino-9H-purin-9-yl)propan-2-yl)oxy)methyl)((1-(hexyloxy)-2-methyl-1-oxopropan-2-yl)amino)phosphoryl)amino)cyclopropane-1-carboxylate] showed a solubility (kinetic) at 24 h of 49 µg/mL (≈ 78.6 µM).

`CCCCCCOC(=O)C(C)(C)NP(=O)(CO[C@H](C)Cn1cnc2c(N)ncnc21)NC(C)(C)C(=O)O[C@H]1CC[C@H](C(F)(F)F)CC1` (stereo partly drawn) [Example 22, Hexyl 2-((((((R)-1-(6-amino-9H-purin-9-yl)propan-2-yl)oxy)methyl)((2-methyl-1-oxo-1-((trans-4-(trifluoromethyl)cyclohexyl)oxy)propan-2-yl)amino)phosphoryl)amino)-2-methylpropanoate] yielded a solubility (kinetic) at 24 h of 36 µg/mL (≈ 52 µM).

`C[C@H](Cn1cnc2c(N)ncnc21)OCP(=O)(NC(C)(C)C(=O)OCCCCC(F)(F)F)NC(C)(C)C(=O)OCCCCC(F)(F)F` [Example 25, Bis(5,5,5-trifluoropentyl) 2,2′-(((((1-(6-amino-9H-purin-9-yl)propan-2-yl)oxy)methyl)phosphoryl)bis(azanediyl))(R)-bis(2-methylpropanoate)] displayed a kinetic solubility at 24 h of 84 µg/mL (≈ 119 µM).

`C[C@H](Cn1cnc2c(N)ncnc21)OCP(=O)(NC(C)(C)C(=O)O[C@H]1C[C@H](C(F)(F)F)C1)NC(C)(C)C(=O)O[C@H]1C[C@H](C(F)(F)F)C1` [Example 26, Bis(trans-3-(trifluoromethyl)cyclobutyl) 2,2′-((((((R)-1-(6-amino-9H-purin-9-yl)propan-2-yl)oxy)methyl)phosphoryl)bis(azanediyl))bis(2-methylpropanoate)] yielded a kinetic solubility at 24 h of 78 µg/mL (≈ 111 µM).

With `CCCCCCOC(=O)C(C)(C)NP(=O)(CO[C@H](C)Cn1cnc2c(NC(C)=O)ncnc21)NC(C)(C)C(=O)OCCCCCC` [Example 28, Dihexyl 2,2′-(((((1-(6-acetamido-9H-purin-9-yl)propan-2-yl)oxy)methyl)phosphoryl)bis(azanediyl))(R)-bis(2-methylpropanoate)], the kinetic solubility at 24 h was 55 µg/mL (≈ 82.4 µM).

In turn, `CCCCCCOC(=O)C(C)(C)NP(=O)(CO[C@H](C)Cn1cnc2c(NC(=O)CCC)ncnc21)NC(C)(C)C(=O)OCCCCCC` [Example 29, Dihexyl 2,2′-(((((1-(6-butyramido-9H-purin-9-yl)propan-2-yl)oxy)methyl)phosphoryl)bis(azanediyl))(R)-bis(2-methylpropanoate)] registered a kinetic solubility at 24 h of 26 µg/mL (≈ 37.4 µM).

With `CCCCCCOC(=O)C(C)(C)NP(=O)(CO[C@H](C)Cn1cnc2c(NC(=O)OCCCCC)ncnc21)NC(C)(C)C(=O)OCCCCCC` [Example 32, Dihexyl 2,2′-(((((1-(6-(((pentyloxy)carbonyl)amino)-9H-purin-9-yl)propan-2-yl)oxy)methyl)phosphoryl)bis(azanediyl))(R)-bis(2-methylpropanoate)], the solubility (kinetic) at 24 h was < 1 µg/mL.

On to `CCCCOC(=O)C(C)(C)NP(=O)(CO[C@H](C)Cn1cnc2c(N)ncnc21)NC(C)(C)C(=O)OCCCC` [Example 38, Dibutyl 2,2′-(((((1-(6-amino-9H-purin-9-yl)propan-2-yl)oxy)methyl)phosphoryl)bis(azanediyl))(R)-bis(2-methylpropanoate)], for which the solubility (kinetic) at 24 h turned out to be 45 µg/mL (≈ 79 µM).

In turn, `C[C@H](Cn1cnc2c(N)ncnc21)OCP(=O)(NC(C)(C)C(=O)OC1CCCCC1)NC(C)(C)C(=O)OC1CCCCC1` [Example 40, Dicyclohexyl 2,2′-(((((1-(6-amino-9H-purin-9-yl)propan-2-yl)oxy)methyl)phosphoryl)bis(azanediyl))(R)-bis(2-methylpropanoate)] displayed a kinetic solubility at 24 h of 57 µg/mL (≈ 91.7 µM).

The molecule `C[C@H](Cn1cnc2c(N)ncnc21)OCP(=O)(NC(C)(C)C(=O)OC1CC2(CCC2)C1)NC(C)(C)C(=O)OC1CC2(CCC2)C1` (stereo partly drawn) [Example 41, Di(spiro[3.3]heptan-2-yl) 2,2′-(((((1-(6-amino-9H-purin-9-yl)propan-2-yl)oxy)methyl)phosphoryl)bis(azanediyl))(R)-bis(2-methylpropanoate)] gave a kinetic solubility at 24 h of 54 µg/mL (≈ 83.6 µM).

`C[C@H](Cn1cnc2c(N)ncnc21)OCP(=O)(NC(C)(C)C(=O)OC1CC(C)(C)C1)NC(C)(C)C(=O)OC1CC(C)(C)C1` [Example 42, Bis(3,3-dimethylcyclobutyl) 2,2′-(((((1-(6-amino-9H-purin-9-yl)propan-2-yl)oxy)methyl)phosphoryl)bis(azanediyl))(R)-bis(2-methylpropanoate)]: the solubility (kinetic) at 24 h amounted to 54 µg/mL (≈ 86.9 µM).

`CC(C)OC(=O)C(C)(C)NP(=O)(CO[C@H](C)Cn1cnc2c(N)ncnc21)NC(C)(C)C(=O)OC(C)C` [Example 43, Diisopropyl 2,2′-(((((1-(6-amino-9H-purin-9-yl)propan-2-yl)oxy)methyl)phosphoryl)bis(azanediyl))(R)-bis(2-methylpropanoate)] displayed a kinetic solubility at 24 h of 53 µg/mL (≈ 97.9 µM).

As for `C[C@H](Cn1cnc2c(N)ncnc21)OCP(=O)(NC(C)(C)C(=O)OC1CCC(C)(C)CC1)NC(C)(C)C(=O)OC1CCC(C)(C)CC1` [Example 44, Bis(4,4-dimethylcyclohexyl) 2,2′-(((((1-(6-amino-9H-purin-9-yl)propan-2-yl)oxy)methyl)phosphoryl)bis(azanediyl))(R)-bis(2-methylpropanoate)], the kinetic solubility at 24 h was 10 µg/mL (≈ 14.8 µM).

Molecule `C[C@H](Cn1cnc2c(N)ncnc21)OCP(=O)(NC(C)(C)C(=O)OCC1CCCC1)NC(C)(C)C(=O)OCC1CCCC1` [Example 45, Bis(cyclopentylmethyl) 2,2′-(((((1-(6-amino-9H-purin-9-yl)propan-2-yl)oxy)methyl)phosphoryl)bis(azanediyl))(R)-bis(2-methylpropanoate)] returned a solubility (kinetic) at 24 h of 64 µg/mL (≈ 103 µM).

`C[C@H](Cn1cnc2c(N)ncnc21)OCP(=O)(NC(C)(C)C(=O)OC1CCC1)NC(C)(C)C(=O)OC1CCC1` [Example 47, Dicyclobutyl 2,2′-(((((1-(6-amino-9H-purin-9-yl)propan-2-yl)oxy)methyl)phosphoryl)bis(azanediyl))(R)-bis(2-methylpropanoate)] registered a kinetic solubility at 24 h of 72 µg/mL (≈ 127 µM).

The molecule `CC(C)CCCCOC(=O)C(C)(C)NP(=O)(CO[C@H](C)Cn1cnc2c(N)ncnc21)NC(C)(C)C(=O)OCCCCC(C)C` [Example 68, Bis(5-methylhexyl) 2,2′-(((((1-(6-amino-9H-purin-9-yl)propan-2-yl)oxy)methyl)phosphoryl)bis(azanediyl))(R)-bis(2-methylpropanoate)] showed a solubility (kinetic) at 24 h of 3 µg/mL (≈ 4.59 µM).

The molecule `CCCC(CCC)COC(=O)C(C)(C)NP(=O)(CO[C@H](C)Cn1cnc2c(N)ncnc21)NC(C)(C)C(=O)OCC(CCC)CCC` [Example 69, Bis(2-propylpentyl) 2,2′-(((((1-(6-amino-9H-purin-9-yl)propan-2-yl)oxy)methyl)phosphoryl)bis(azanediyl))(R)-bis(2-methylpropanoate)] registered a solubility (kinetic) at 24 h of 1 µg/mL (≈ 1.47 µM).

`CCC(CC)COC(=O)C(C)(C)N[P@@](=O)(CO[C@H](C)Cn1cnc2c(N)ncnc21)NC1(C(=O)OCC(CC)CC)CC1` [Example 72, 2-Ethylbutyl 1-(((S)-((((R)-1-(6-amino-9H-purin-9-yl)propan-2-yl)oxy)methyl)((1-(2-ethylbutoxy)-2-methyl-1-oxopropan-2-yl)amino)phosphoryl)amino)cyclopropane-1-carboxylate] registered a solubility (kinetic) at 24 h of 35 µg/mL (≈ 56.1 µM).
